US10709697B2, “Bis-amines, compositions, and uses related to CXCR4 inhibition” (Emory University, priority 2015, dated 2020)
Blank lines part the entries; values can stand above or below the molecule they belong to.

Tests used:
CXCR4 = molecular target: T1, CXCR4 (Homo sapiens, UniProt P61073); assay: Primary binding affinity screening (competition with biotinylated TN14003)
T1 construct: endogenous in cells; host or cells: MDA-MB-231
Protocol: The compounds were initially screened with a binding affinity assay. […] MDA-MB-231 cells were pre-incubated with compounds at concentrations of 1, 10, 100, and 1000 nM, then incubated with biotinylated TN14003 and streptavidin-conjugated rhodamine to determine the binding efficiency of the new compounds to the CXCL12 binding domain of CXCR4. […] Thus, this screening is a semi-quantitative, first pass measure of the level of activity.
For binding affinity assay, 2×10^4 MDA-MB-231 cells in 300 μL of cell culture medium were seeded in an 8-well slide chamber 2 days before the experiments were conducted. Various concentrations of different compounds (1, 10, 100, or 1000 nM) were added to the separate wells and incubated for 10 min at room temperature, and then the cells were fixed in 4% ice-cold paraformaldehyde. The cells were rehydrated in phosphate-buffered saline (PBS). The slides were subsequently incubated for 30 min at room temperature with 0.05 μg/mL biotinylated TN14003, washed three times with PBS, and incubated in streptavidin-rhodamine (1:150 dilution; Jackson ImmunoResearch Laboratories, West Grove, Pa.) for 30 min at room temperature. Finally, the slides were washed with PBS and mounted in an anti-fade mounting solution (Molecular Probes, Eugene, Oreg.), and the samples were analyzed on a Nikon Eclipse E800 microscope.

[1] = system: CXCR4/CXCL12-mediated chemotaxis and invasion; assay: Matrigel invasion assay; type: cell-based; conditions: for Invasion: Table 3, concentration used 100 nM; for inhibition at 0.1 µM: single concentration of 100 nM, CXCL12 as chemoattractant, FIG. 2, read-out: inhibitory rate, Matrigel invasion; for Invasion Assay: Table 2
Text: To model in vitro metastasis, a Matrigel® invasion assay was used as the functional assay. […] A layer of Matrigel® matrix-coated permeable support (8 μm pore diameter) separates the upper and lower chambers.

[2] = system: carrageenan-induced mouse paw edema; assay: In vivo suppression against carrageenan-induced paw edema; conditions: for Carageenan: Table 3, mice dosed 10 mg of compound per kg; for inflammation-suppression percentage (paw edema): female C57BL/6J mice, 74 h after carrageenan challenge
Protocol: CXCR4 plays a role in the recruitment of inflammatory cells to sites of inflammation. Blocking CXCR4 is a therapeutic strategy in inflammatory diseases. A carrageenan-induced mouse paw edema model as an efficient model to evaluate the in vivo CXCR4 antagonistic activity for CXCR4 inhibitors.
Acute inflammation was induced by subcutaneous injection of 50 μL of λ-carrageenan (1% w/v in saline) into one of the hind paws of the female C57BL/6J mice (Jackson Laboratories); the other hind paw was injected with 50 μL of saline, which was used as a non-inflammation control. The selected compounds were dissolved in 10% DMSO and 90% of 45% (2-hydroxypropyl)-β-cyclodextrin (CD) in PBS. In the treatment group, compounds IIg, IIk, IIm and IIn were administered intraperitoneally (i.p.) at 10 mg/kg daily, while TN14003 was administered at 300 μg/kg, i.p., daily, 30 min following carrageenan challenge. The rationale for using 300 μg/kg for TN14003 was that this concentration was reported to be the minimum concentration needed to achieve the maximum efficacy of this compound in a […] metastasis animal model. See Yoon et al. CXC chemokine receptor-4 antagonist blocks both growth of primary tumor and metastasis of head and neck cancer in xenograft mouse models. Cancer Res., 67 (2007), pp. 7518-7524. Control animals received corresponding i.p. injections of the vehicle. The animals were sacrificed 74 h after carrageenan challenge and 2 h after the last injection of the selected compounds. The final paws were photographed and measured for thickness from the “palm” to the back of the paw with a caliper. These were compared to the volume of carrageenan-untreated contralateral paw to obtain the edema volume; the volume of the contralateral paw was subtracted from the volume of the carrageenan injected paw to obtain the edema volume. The inflammation-suppression percentage was calculated by comparing the drug-treated group to the control group.

[3] = effective concentration = lowest concentration with significant reduction of rhodamine fluorescence, MDA-MB-231 cells, tested at 1, 10, 100, 1000 nM

T1 sequence (P61073 whole entry): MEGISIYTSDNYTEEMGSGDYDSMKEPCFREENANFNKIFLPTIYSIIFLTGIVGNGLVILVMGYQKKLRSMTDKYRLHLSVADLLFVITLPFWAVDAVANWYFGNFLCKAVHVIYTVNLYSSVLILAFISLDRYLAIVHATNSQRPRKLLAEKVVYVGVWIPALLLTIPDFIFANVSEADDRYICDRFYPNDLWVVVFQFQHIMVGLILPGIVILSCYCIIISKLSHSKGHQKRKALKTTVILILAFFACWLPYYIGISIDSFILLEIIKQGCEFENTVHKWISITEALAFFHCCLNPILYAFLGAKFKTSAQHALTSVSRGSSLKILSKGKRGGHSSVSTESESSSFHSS

- EC (CXCR4; Table 3): 1 nM
Molecule: FC(F)(F)c1ccc(NCc2cccc(CNc3ccc(C(F)(F)F)cc3)n2)cc1 [2,6-Bis(4-trifluoromethylanilinomethyl)pyridine]
- Invasion [1]: 52%
- Carageenan [2]: 20.3%

- EC (CXCR4; [3]): 1000 nM
Molecule: CN(Cc1cccc(CN(C)c2ccc(F)cc2)n1)c1ccc(F)cc1 [IIe, N,N′-(Pyridine-2,6-diylbis(methylene))bis(4-fluoro-N-methylaniline)]
- inhibition at 0.1 µM [1]: < 50%

- EC (CXCR4; [3]): >1000 nM
Molecule: CN(Cc1ccc(CN(C)Cc2ccccc2F)cc1)Cc1ccccc1F [Ih, N,N′-(1,4-Phenylenebis(methylene))bis(1-(2-fluorophenyl)-N-methylmethanamine)]

- EC (CXCR4; [3]): 100 nM
Molecule: c1cc(CN2CCOCC2)nc(CN2CCOCC2)c1 [IIc, 2,6-Bis(morpholinomethyl)pyridine]
- inhibition at 0.1 µM [1]: 68.9%

- EC (CXCR4; [3]): >1000 nM
Molecule: CN(Cc1ccc(CN(C)Cc2cccnc2)cc1)Cc1cccnc1 [Io, N,N′-(1,4-Phenylenebis(methylene))bis(N-methyl-1-(pyridin-3-yl)methanamine)]

- EC (CXCR4; [3]): 1000 nM
Molecule: c1cc(CN2CCCC2)ccc1CN1CCCC1 [Ia, 1,4-Bis(pyrrolidin-1-ylmethyl)benzene]

- EC (CXCR4; Table 3): 100 nM
Molecule: COc1cccc(NCc2cccc(CNc3cccc(OC)c3)n2)c1 [2,6-Bis(3-methoxyanilinomethyl)pyridine]
- Invasion [1]: 37%
- Carageenan [2]: 20.1%

- EC (CXCR4; Table 3): 1 nM
Molecule: CCc1ccc(NCc2cccc(CNc3ccc(CC)cc3)n2)cc1 [2,6-Bis(4-ethylanilinomethyl)pyridine]
- Invasion [1]: 64%
- Carageenan [2]: 42.0%

- EC (CXCR4; Table 3): 10 nM
Molecule: Fc1cccc(NCc2cccc(CNc3cccc(F)c3)n2)c1 [2,6-Bis(3-fluoroanilinomethyl)pyridine]
- Invasion [1]: 50%
- Carageenan [2]: 20.3%

- EC (CXCR4; [3]): 10 nM
Molecule: COc1cccc(CN(C)Cc2cccc(CN(C)Cc3cccc(OC)c3)n2)c1 [IIk, N,N′-(Pyridine-2,6-diylbis(methylene))bis(1-(3-methoxyphenyl)-N-methylmethanamine)]
- inhibition at 0.1 µM [1]: 76.7%
- inflammation-suppression percentage (paw edema) ([2]; 10 mg/kg i.p. daily): 31.0%

- EC (CXCR4; [3]): 1 nM
Molecule: c1cc(CN2CCCCC2)nc(CN2CCCCC2)c1 [IIb, 2,6-Bis(piperidin-1-ylmethyl)pyridine]
- inhibition at 0.1 µM [1]: 65.3%

- EC (CXCR4; [3]): >1000 nM
Molecule: CN(Cc1ccc(CN(C)Cc2cccc(F)c2)cc1)Cc1cccc(F)c1 [Ii, N,N′-(1,4-Phenylenebis(methylene))bis(1-(3-fluorophenyl)-N-methylmethanamine)]

- EC (CXCR4; [3]): 1000 nM
Molecule: CCN(Cc1ccccc1)Cc1ccc(CN(CC)Cc2ccccc2)cc1 [Il, N,N′-(1,4-Phenylenebis(methylene))bis(N-benzylethanamine)]

- EC (CXCR4; [3]): >1000 nM
Molecule: CN(Cc1cccc(CN(C)Cc2ccccc2Cl)n1)Cc1ccccc1Cl [IIf, N,N′-(Pyridine-2,6-diylbis(methylene))bis(1-(2-chlorophenyl)-N-methylmethanamine)]

- EC (CXCR4; [3]): >1000 nM
Molecule: CN(Cc1cccc(F)c1)Cc1cccc(CN(C)Cc2cccc(F)c2)n1 [IIi, N,N′-(Pyridine-2,6-diylbis(methylene))bis(1-(3-fluorophenyl)-N-methylmethanamine)]

- EC (CXCR4; Table 3): 1 nM
Molecule: CCc1ccccc1NCc1cccc(CNc2ccccc2CC)n1 [2,6-Bis(2-ethylanilinomethyl)pyridine]
- Invasion [1]: 59%
- Carageenan [2]: 18.1%

- EC (CXCR4; [3]): >1000 nM
Molecule: CN(Cc1ccncc1)Cc1cccc(CN(C)Cc2ccncc2)n1 [IIp, N,N′-(Pyridine-2,6-diylbis(methylene))bis(N-methyl-1-(pyridin-4-yl)methanamine)]

- EC (CXCR4; [3]): 1 nM
Molecule: c1ccc(CN(Cc2cccc(CN(Cc3ccccc3)CC3CC3)n2)CC2CC2)cc1 [IIm, N,N′-(Pyridine-2,6-diylbis(methylene))bis(N-benzyl-1-cyclopropylmethanamine)]
- inhibition at 0.1 µM [1]: 100%

- EC (CXCR4; [3]): 1000 nM
Molecule: CN(Cc1ccc(F)cc1)Cc1cccc(CN(C)Cc2ccc(F)cc2)n1 [IIj, N,N′-(Pyridine-2,6-diylbis(methylene))bis(1-(4-fluorophenyl)-N-methylmethanamine)]

- EC (CXCR4; [3]): 1000 nM
Molecule: c1ccc(CN(Cc2ccc(CN(Cc3ccccc3)CC3CC3)cc2)CC2CC2)cc1 [Im, N,N′-(1,4-Phenylenebis(methylene))bis(N-benzyl-1-cyclopropylmethanamine)]

- EC (CXCR4; [3]): >1000 nM
Molecule: CN(Cc1ccc(CN(C)Cc2ccccn2)cc1)Cc1ccccn1 [In, N,N′-(1,4-Phenylenebis(methylene))bis(N-methyl-1-(pyridin-2-yl)methanamine)]

- EC (CXCR4; Table 3): 1000 nM
- EC (CXCR4; [3]): 1000 nM
Molecule: c1cc(CN2CCCNCCNCCCNCC2)ccc1CN1CCCNCCNCCCNCC1 [AMD3100, reference compound]
- Invasion [1]: 62%

- EC (CXCR4; [3]): >1000 nM
Molecule: CN(Cc1ccc(CN(C)Cc2ccccc2Cl)cc1)Cc1ccccc1Cl [If, N,N′-(1,4-Phenylenebis(methylene))bis(1-(2-chlorophenyl)-N-methylmethanamine)]

Molecule: CCc1ccc(NCc2ccc(CNc3ccc(CC)cc3)nc2)cc1 [2,5-pyridine H 4-Et Phenyl, N′-(Pyridine-2,5-diylbis(methylene))bis(4-ethylaniline)]
- EC (CXCR4; Table 2): 1 nm
- Invasion Assay [1]: 64%

- EC (CXCR4; [3]): 10 nM
Molecule: CN(Cc1cccc(Cl)c1)Cc1cccc(CN(C)Cc2cccc(Cl)c2)n1 [IIg, N,N′-(Pyridine-2,6-diylbis(methylene))bis(1-(3-chlorophenyl)-N-methylmethanamine)]
- inhibition at 0.1 µM [1]: 88.6%

- EC (CXCR4; [3]): 1 nM
Molecule: c1cc(CN2CCCC2)nc(CN2CCCC2)c1 [IIa, 2,6-Bis(pyrrolidin-1-ylmethyl)pyridine]

- EC (CXCR4; [3]): >1000 nM
Molecule: CN(Cc1ccncc1)Cc1ccc(CN(C)Cc2ccncc2)cc1 [Ip, N,N′-(1,4-Phenylenebis(methylene))bis(N-methyl-1-(pyridin-4-yl)methanamine)]

- EC (CXCR4; Table 2): 100 nm
- EC (CXCR4; Table 3): 1 nM
Molecule: Cc1cccc(NCc2ccc(CNc3cccc(C)c3)nc2)c1 [N,N′-(Pyridine-2,5-diylbis(methylene))bis(3-methylaniline)]
- Invasion Assay [1]: 60.2%
- Invasion [1]: 58%

- EC (CXCR4; [3]): 1000 nM
Molecule: CN(Cc1cccc(CN(C)Cc2ccccc2F)n1)Cc1ccccc1F [IIh, N,N′-(Pyridine-2,6-diylbis(methylene))bis(1-(2-fluorophenyl)-N-methylmethanamine)]

- EC (CXCR4; [3]): 10 nM
Molecule: COc1cccc(CN(C)Cc2ccc(CN(C)Cc3cccc(OC)c3)cc2)c1 [Ik, N,N′-(1,4-Phenylenebis(methylene))bis(1-(3-methoxyphenyl)-N-methylmethanamine)]
- inhibition at 0.1 µM [1]: < 50%

- EC (CXCR4; Table 2): 10 nm
Molecule: Fc1cccc(NCc2ccc(CNc3cccc(F)c3)nc2)c1 [2,5-pyridine H 3-F Phenyl, N,N′-(Pyridine-2,5-diylbis(methylene))bis(3-fluoroaniline)]
- Invasion Assay [1]: 50%

- EC (CXCR4; [3]): >1000 nM
Molecule: CN(Cc1cccnc1)Cc1cccc(CN(C)Cc2cccnc2)n1 [IIo, N,N′-(Pyridine-2,6-diylbis(methylene))bis(N-methyl-1-(pyridin-3-yl)methanamine)]

- EC (CXCR4; [3]): 1000 nM
Molecule: CN(Cc1ccc(CN(C)Cc2cccc(Cl)c2)cc1)Cc1cccc(Cl)c1 [Ig, N,N′-(1,4-Phenylenebis(methylene))bis(1-(3-chlorophenyl)-N-methylmethanamine)]

- EC (CXCR4; [3]): >1000 nM
Molecule: CCN(Cc1ccccc1)Cc1cccc(CN(CC)Cc2ccccc2)n1 [IIl, N,N′-(Pyridine-2,6-diylbis(methylene))bis(N-benzylethanamine)]

Molecule: TN14003 [reference compound]
- inflammation-suppression percentage (paw edema) ([2]; 300 μg/kg i.p. daily): 48%
